From US20040152694A1, “Methods and compositions for treating inflammatory disorders of the airways” (priority 2003, published 2004) come the findings set out here.

Read-outs that look alike come from different tables or passages of the source.

The test system of assay [1] is trachea of ovalbumin-sensitized and challenged BN-rats. Put plainly: Tracheal contraction to acetylcholine ex vivo after antigen challenge, oral pretreatment. To be noted: for MAX: Contraction at maximal Ach concentration relative to control / ED50: −log M acetylcholine (Ach) causing 50% contraction relative to control: 3.0 mg/kg orally 2 hours before antigen challenge, mean ± SEM; for MAX: Contraction at maximal Ach concentration relative to control: control = 100; for ED50: −log M acetylcholine (Ach) causing 50% contraction relative to control: trachea 48 h post challenge; for Tracheal hyper-reactivity to acetylcholine after ovalbumin challenge: dose of 3.0 mg/kg, oral. In kind it is in vivo, rat. The procedure: (§1) Rats were actively sensitized to ovalbumin (OA) by a subcutaneous injection of 0.5 ml of OA/Al(OH3) gel mixture (2 mg OA+10 g Al(OH3)/100 ml saline) on day 1 with subsequent subcutaneous injections (10 mg OA+10 g Al(OH3)/100 ml saline) given on days 14 and 21. On day 28, animals received GYKI-52466, GYKI-47261 or GYKI-53773 compound orally (0.3 mg/kg or 3.0 mg/kg) 2 hours before antigen challenge. Antigen challenge was performed by inhalation of nebulised ovalbumin (1% antigen solution administered in a TSE inhalation system for 1 hour). Animals were sacrificed 48 hours post antigen challenge wherein the tracheas were removed to an organ bath. Dissected tracheas were allowed to equilibrate for 30 minutes before measuring tracheal spasmogenic response curves to acetylcholine (Ach).

The test system is the same in assay [2]. Put plainly: Tracheal contraction to acetylcholine ex vivo after antigen challenge, local (intratracheal) treatment with GYKI-53773. Format: in vivo, rat. The procedure:
as §1
The procedures of Example 2 were followed in order to compare the effects of antigen exposure and local (intratracheal) GYKI 53773 treatments on Ach-induced tracheal contractions in allergen sensitized and challenged rats.

Assay [3] relates to isolated guinea pig trachea. Put plainly: Endothelin-1-induced contraction of isolated guinea pig trachea in vitro. To be noted: for Emax at 10 µM / Emax at 30 µM: Cavia porcellus, 25 min, read-out: Contraction %: percent of maximal response to 4.5 μM histamine. The procedure: In order to measure the effect of GYKI 52466 and 53773 (talampanel) on endothelin-1-induced contractions in isolated guinea pig trachea the following procedures were followed. The tracheae of male Dunkin-Hartley guinea pigs (350-450 g) were removed; helical strips were prepared and mounted in an organ bath. After equilibration, the strips were contracted with endothelin-1 and when contraction had reached the plateau, different concentrations of GYKI-52466, 53773 or the suitable vehicles were added into the chambers. Changes in tensions were expressed as the percentage of the maximal response to 4.5 μM histamine measured at the beginning of the experiment.

The subject of assay [4] is airways epithelial cells of antigen sensitized BN rats. Nature of the assay: Allergen-induced mucus production of airways epithelial cells, PAS staining. Format: in vivo, rat. To be noted: mean ± SEM. The procedure: Antigen sensitized BN rats were pretreated orally with 0.3, 3 and 30 mg/kg GYKI-52466 or GYKI-53773 (Talampanel) 2 hours prior to antigen challenge using a similar protocol that was described in Example 2. Lungs were isolated 48 hours subsequent to antigen exposure; samples were fixed in phosphate-buffered 8% formalin. Specimens were then routinely processed for histochemistry. In the periodic acid-Schiff stained (PAS) and haematoxylin-eosin counterstained, 5 μm thick sections, all epithelial cells of each airway segments were counted in the whole preparations at a magnification of 400×. The number of PAS(+) [mucus-producing] epithelial cells are expressed as the ratio of all epithelial cells.

Assay [5] relates to Rat aortic smooth muscle cells (primary). Put plainly: Growth factor-induced proliferation of smooth muscle cells, 3H-thymidine incorporation, RASMC. In kind it is cell-based. The protocol: (§2) Primary and permanently cultured rat aortic smooth muscle cells were made senescent by serum deprivation (0.1% FCS, 48 hours). Proliferation was induced by re-addition of serum (10%) containing the necessary growth factors and the effect of different concentrations of the AMPA receptor modulators on the proliferation of the cells was determined by measuring ^3H-thymidine incorporation.
Background: Dividing cells build labelled thymidine or BrdU into new DNA.

Assay [6] concerns A7r5 established smooth muscle cell line (ATCC). Nature of the assay: Growth factor-induced proliferation of smooth muscle cells, 3H-thymidine incorporation, A7r5. Format: cell-based, rat. The protocol:
as §2

A further assay concerns AMPA receptors. Nature of the assay: Ventilated, perfused rat lung: AMPA-induced lung injury. The procedure:
The presence/function of AMPA receptors in the lung of experimental animals was investigated in the same model (ventilated perfused rat lung) that was applied for the examination of NMDA-receptors by Said et al., (Proc Natl. Acad. Sci. (USA) 93:4688 (1996). The lung of anesthetized SPRD rats were ventilated and were in situ perfused with a constant flow of Krebs solution. L-arginine, AMPA and AMPA-antagonist were added directly to the perfusate as described by Said et al, supra. As it is shown in Table 2, activation of the AMPA receptors triggered an acute edematous lung injury manifested by the significant increase in airway pressure (PAW) pulmonary artery pressure (PAP) and the ratio of wet and dry weight of the lung after the treatment.

The subject of assay [7] is trachea of ovalbumin-sensitized and challenged BN-rats. Put plainly: Tracheal contraction to acetylcholine ex vivo after antigen challenge, systemic (intraperitoneal) NBQX. Format: in vivo, rat. The protocol:
as §1
The procedures of Example 2 were followed in order to compare the effects of antigen exposure and systemic (intraperitoneal) NBQX treatments on Ach-induced tracheal contractions in allergen sensitized and challenged rats.

The test system is the same in assay [8]. Put plainly: Tracheal contraction to acetylcholine ex vivo after antigen challenge, local (intratracheal) NBQX. In kind it is in vivo, rat. To be noted: for ED50: −log M acetylcholine (Ach) causing 50% contraction relative to control / MAX: Contraction at maximal Ach concentration relative to control: local.
The mark [9] stands for this setting: second dose column (dose number not given).
[10] abbreviates: third dose column (dose number not given).
[11] abbreviates: 0.3 mg/kg orally 2 hours prior to antigen challenge, lungs 48 hours after.
The mark [12] stands for this setting: 3 mg/kg orally 2 hours prior to antigen challenge.
The mark [13] stands for this setting: 30 mg/kg orally 2 hours prior to antigen challenge.
Where [14] appears, read: AMPA (200 μM) alone in perfusate, SPRD rats.
Where [15] appears, read: third (highest) dose column (dose number not given).

On to `CC(=O)N1N=C(c2ccc(N)cc2)c2cc3c(cc2CC1C)OCO3` (single isomer, unassigned; (-)) [GYKI-53773, (−)-1-(4-Aminophenyl)-3-acetyl-4-methyl-3,4-dihydro-7,8-methylenedioxy-5H-2,3-benzodiazepine], for which the “MAX: Contraction at maximal Ach concentration relative to control” value in [1] stood at 85 ± 16; in assay [2] (first dose column (dose number not given), challenged 312, control 100), 202 ± 66; in assay [2] (setting [9]) it was 113 ± 19; in assay [2] (setting [10]) it was 129 ± 30. Besides, the “ED50: −log M acetylcholine (Ach) causing 50% contraction relative to control” value in assay [1] is 4.64 ± 0.34 −log M; in assay [2] (first dose column (dose number not given), challenged 7.22, control 5.89) it was 5.80 ± 0.47 −log M; in assay [2] (setting [9]) it was 5.73 ± 0.39 −log M; in assay [2] (setting [10]) it was 5.68 ± 0.55 −log M. The “Tracheal hyper-reactivity to acetylcholine after ovalbumin challenge” value (“Tracheal hyper-reactivity” below) in assay [1] was “brought this elevation back to control level”. In addition, the “Allergen-induced airways hyperresponsiveness” value in assay [2] (1 μg/kg, single administration) was “strongly reduced the allergen-induced airways hyperresponsiveness”. Moreover, in assay [3], the “Contraction caused by ET-1 in the isolated guinea pig trachea” value is given as “dose-dependently inhibit the contraction”. The Emax at 10 µM in [3] (10 μM, 25 minutes after addition, vehicle 84 ± 8, Mean ± SD (n)) is 43 ± 9%. In [3] (30 μM, 25 minutes after addition, vehicle 66 ± 8, Mean ± SD (n)), the Emax at 30 µM amounted to 7 ± 4%. Also, the “% PAS(+) cells of total epithelial cells” value in assay [4] (setting [11]) worked out at 12.34 ± 1.39%; in assay [4] (setting [12]) it was 9.49 ± 1.08%; in assay [4] (setting [13]), 5.02 ± 0.75%. Moreover, the “Inhibition (% of control) RASMC” value in assay [5] (0.03 μg/ml) was 26 % of control; in [5] (0.3 μg/ml), 59 % of control; in assay [5] (3.0 μg/ml) it was 70 % of control. Besides, the “Inhibition (% of control) A7r5” value is recorded as 21 % of control in [6] (0.03 μg/ml), 43 % of control in assay [6] (0.3 μg/ml) and 87 % of control in assay [6] (3.0 μg/ml).
`CNC(=O)N1N=C(c2ccc(N)cc2)c2cc3c(cc2CC1C)OCO3` (single isomer, unassigned; (-)) [GYKI-53784, (−)-1-(4-Aminophenyl)-3-methylcarbamoyl-4-methyl-7,8-methylenedioxy-3,4-dihydro-5H-2,3-benzodiazepine]: in the assay with AMPA receptors (AMPA (200 μM) + 53784 (200 μM), AMPA alone 14.8, control 6.6), the “W/D: Ratio of wet and dry weight of lungs after 60-minute perfusion” value is given as 14.3 ± 5.6 (4). In the assay on AMPA receptors (AMPA (200 μM) + 53784 (200 μM), AMPA alone 147.9, control 96.0), the “PAP: Pulmonary artery pressure after 60 minutes perfusion as a percent of 0 minute pressure” value is reported as 114.0 ± 23.0 (4) percent. In addition, in the assay on AMPA receptors (AMPA (200 μM) + 53784 (200 μM), AMPA alone 183.4, control 99.3), the “PAW: Airway pressure after 60 minute perfusion as a percent of 0 minute pressure” value is reported as 110.3 ± 19.1 (4) percent. For the same molecule, in the assay on AMPA receptors (AMPA-treated perfused rat lung), the “Effect on airway and pulmonary arterial pressures” value is “decreased both the airway and the pulmonary arterial pressures”.
Regarding `Cc1onc(O)c1CC(N)C(=O)O` (stereo not drawn) [AMPA, α-Amino-3-hydroxy-5-methyl-4-isoxazole propionate], in the assay on AMPA receptors (setting [14]), the “PAP: Pulmonary artery pressure after 60 minutes perfusion as a percent of 0 minute pressure” value is listed as 147.9 ± 8.6 (7) percent; the “W/D: Ratio of wet and dry weight of lungs after 60-minute perfusion” value is 14.8 ± 3.9 (3). Also, the “PAW: Airway pressure after 60 minute perfusion as a percent of 0 minute pressure” value in the assay on AMPA receptors (AMPA (200 μM) alone in perfusate, SPRD rats, n in brackets) is 183.4 ± 15.6 (7) percent.
On to `Cc1cn2c(n1)Cc1ccc(Cl)cc1C(c1ccc(N)cc1)=N2` [GYKI-47261], for which, in assay [1], the “MAX: Contraction at maximal Ach concentration relative to control” value amounted to 98 ± 13, the “ED50: −log M acetylcholine (Ach) causing 50% contraction relative to control” value is listed as 5.26 ± 0.30 −log M and the “Tracheal hyper-reactivity” value was “brought this elevation back to control level”.
As to `CC1=NN=C(c2ccc(N)cc2)c2cc3c(cc2C1)OCO3` [GYKI-52466, 1-(4-Aminophenyl)-4-methyl-7,8-methylenedioxy-5H-2,3-benzodiazepine], in assay [1], the “MAX: Contraction at maximal Ach concentration relative to control” value is 135 ± 32, the “ED50: −log M acetylcholine (Ach) causing 50% contraction relative to control” value is on record as 5.60 ± 0.46 −log M and the “Tracheal hyper-reactivity” value is given as “brought this elevation back to control level”. Moreover, in [3], the “Contraction caused by ET-1 in the isolated guinea pig trachea” value is given as “dose-dependently inhibit the contraction”, the Emax at 10 µM is 53 ± 7% and the Emax at 30 µM stood at 23 ± 9%. The “% PAS(+) cells of total epithelial cells” value in assay [4] (setting [11]) was found to be 16.09 ± 1.82%. Further, in assay [4] (setting [12]), the “% PAS(+) cells of total epithelial cells” value came to 15.18 ± 1.68%. Also, the “% PAS(+) cells of total epithelial cells” value in assay [4] (setting [13]) is 14.17 ± 1.59%.
For the molecule `NS(=O)(=O)c1cccc2c1c([N+](=O)[O-])cc1[nH]c(=O)c(=O)[nH]c12` [NBQX, 2,3-Dihydroxy-6-nitro-7-sulphamoyi-benzo(f)quinoxaline], the “ED50: −log M acetylcholine (Ach) causing 50% contraction relative to control” value was 6.29 ± 0.51 −log M in assay [7] (0.15 mg/kg intraperitoneal, challenged 7.31, control 6.16); 4.98 ± 0.80 −log M in assay [7] (1.5 mg/kg intraperitoneal); 5.11 ± 0.55 −log M in [7] (15 mg/kg intraperitoneal); 5.85 ± 0.59 −log M in assay [8] (first dose column (dose number not given), challenged 6.70, control 5.68); 5.20 ± 0.72 −log M in assay [8] (setting [9]); 3.44 ± 0.36 −log M in assay [8] (setting [15]). The “MAX: Contraction at maximal Ach concentration relative to control” value in [7] (0.15 mg/kg intraperitoneal, challenged 308, control 100) stood at 178 ± 65; in assay [7] (1.5 mg/kg intraperitoneal) it was 115 ± 30; in [7] (15 mg/kg intraperitoneal) it was 125 ± 32; in [8] (first dose column (dose number not given), challenged 327, control 100), 308 ± 128; in [8] (setting [9]), 108 ± 28; in assay [8] (setting [15]), 60 ± 14. Also, in assay [7] (intraperitoneal, dose-dependent), the “Allergen-induced airways hypersensitivity, ED50 and maximal provoked response” value was “strongly inhibits both parameters”. Further, in assay [8] (local administration, statistically significant only at the highest applied dose), the “Allergen-induced airways hypersensitivity” value was “inhibits allergen-induced airways hypersensitivity in a dose-dependent manner”. The results for the “Inhibition (% of control) RASMC” value in assay [5] (0.03 μg/ml), in assay [5] (0.3 μg/ml) and in assay [5] (3.0 μg/ml) were 1 % of control, 5 % of control and 94 % of control, respectively.
